Data published in US4745067A, “L-aminoacylases” (Microbial Chemistry Research Foundation, priority 1985, dated 1988).
“Also recorded” adds a separate entry of the source. Like-named read-outs stand apart in the source and are kept apart here. Blank lines part the entries; values can stand above or below the molecule they belong to.

Columns and labels:
L-aminoacylase S1 [1] = assay: Substrate profile of L-aminoacylase S1; format: biochemical, Streptomyces hachijoensis; conditions: for Relative activity (%): compound used as substrate, L-N-acetyl-methionine evaluated to be 100
Experimental: (§1) The enzymatic activity was measured by using N-acyl derivatives of various amino acids as the substrate.

L-aminoacylase S2 [2] = assay: Substrate profile of L-aminoacylase S2; format: biochemical, Streptoverticillium rimofaciens; conditions: for Relative activity (%): compound used as substrate, L-N-acetyl-methionine evaluated to be 100
Experimental: as §1

L-aminoacylase S1 [3] = assay: Influence of metal ions on L-aminoacylase S1; format: biochemical, Streptomyces hachijoensis; conditions: for Relative activity (%): 1 mM metal salt, 37° C. one hour, substrate N-Ac-DB-DOPS, no metal added = 100%
Experimental: (§2) A potassium phosphate buffer solution (pH 7.0) of the enzyme of the present invention was treated for one hour at various temperatures, and the remaining activity was measured. As the substrate, L-threo-N-acetyl-3-(3,4-dibenzyloxyphenyl)serine (hereinafter referred to simply as N-Ac-DB-DOPS) was employed, and the reaction was conducted at 37° C. for one hour, whereupon freed L-threo-3-(3,4-dibenzyloxyphenyl)serine (hereinafter referred to simply as DB-DOPS) was measured by a ninhydrin method to determine the activity.
L-aminoacylase S1 of the present invention is added to a 0.1 M Veronal buffer solution containing a final concentration of 1 mM of various metal salts, and left to stand at 37° C. for one hour. Then, it was reacted with N-Ac-DB-DOPS as the substrate at 37° C. for 1 hour, whereby the relative activity was measured by the above-mentioned method. The one where no metal was added, was evaluated to be 100%.

L-aminoacylase S2 [4] = assay: Influence of metal ions on L-aminoacylase S2; format: biochemical, Streptoverticillium rimofaciens; conditions: for Relative activity (%): 1 mM metal salt, 37° C. 1 hour, substrate N-Ac-DB-DOPS, no metal salt added = 100%
Experimental: (§3) As the substrate, N-Ac-DB-DOPS was used, and the reaction was conducted at 37° C. for one hour, whereby freed DB-DOPS was measured by a ninhydrin method to determine the enzymatic activity.
L-aminoacylase S2 of the present invention was added to 0.1 M Veronal buffer solution containing as the final concentration 1 mM of various metal salts, and the reaction was conducted at 37° C. for 1 hour. Then, it was reacted with N-Ac-DB-DOPS as the substrate at 37° C. for one hour, whereupon the relative activity was measured by the above-mentioned method. The activity of the one where no metal salt was added, was evaluated to be 100%.

L-aminoacylase S2 [5] = assay: Influence of inhibitors on L-aminoacylase S2; format: biochemical, Streptoverticillium rimofaciens
Experimental: as §3, with “activity. As shown in the Figure, 20% is deactivated by the treatment at 60° C., and at least 70% is deactivated at 70° C. However, the enzyme is certainly stable at 50° C.” for “activity.”
The enzyme of the present invention was left to stand for one hour at 37° C. together with various inhibitors, and then reacted at 37° C. for one hour with N-Ac-DB-DOPS as the substrate, whereupon the remaining activity was measured by the above-mentioned method.

L-aminoacylase S1 [6] = assay: Influence of inhibitors on L-aminoacylase S1; format: biochemical, Streptomyces hachijoensis
Experimental: as §2, with “activity. As shown, 95% or more is deactivated by the treatment at pH 7.0 at 60° C., but the enzyme is certainly stable at a temperature of 50° C. or lower.” for “activity.”
The enzyme of the present invention is left to stand at 37° C. for one hour together with various inhibitors, and then reacted with N-Ac-DB-DOPS as the substrate at 37° C. for one hour, whereby the remaining activity was measured by the above-mentioned method.

[7] = Comparison of substrate profiles of L-aminoacylases, substrate L-N-acetyl-methionine; format: biochemical; parameters: key: +: active; -: inactive; conditions: Table 7
Experimental: (§4) The substrate profiles of L-aminoacylase S1 and L-aminoacylase S2 of the present invention and conventional L-aminoacylases were measured.
(§5) L-aminoacylase S1 and L-aminoacylase S2 of the present invention was compared with commercially available L-aminoacylases in their activity by using N-acetyl derivatives of D- or L-methionine and L-threo-3-(3,4-dibenzyloxyphenyl) serine as substrates.

[8] = Comparison of substrate profiles of L-aminoacylases, substrate D-N-acetyl-methionine; format: biochemical; parameters: key: +: active; -: inactive; conditions: Table 7
Experimental: as §4, §5

[9] = Comparison of substrate profiles of L-aminoacylases, substrate L-threo-N-acetyl-3-(3,4-dibenzyloxyphenyl)serine; format: biochemical; parameters: key: +: active; -: inactive; conditions: Table 7
Experimental: as §4, §5

[10] = L-aminoacylase S2, inhibitor 1 mM, 37° C. one hour, substrate N-Ac-DB-DOPS
[11] = L-aminoacylase S1, inhibitor 1 mM, 37° C. one hour, substrate N-Ac-DB-DOPS

Action of the enzyme on the substrate (in words) (L-aminoacylase S1 [1]): does not act
Relative activity (%) (L-aminoacylase S1 [1]): 0%
Action of the enzyme on the substrate (in words) (L-aminoacylase S2 [2]): does not act
Relative activity (%) (L-aminoacylase S2 [2]): 0%
Molecule: CC(=O)NC(C)c1ccccc1 (racemic) [DL-N--acetyl-α-methylbenzylamine, DL-N-acetyl-α-methylbenzylamine]

Influence of metal ions on activity (in words) (L-aminoacylase S1 [3]): strongly inhibited
Relative activity (%) (L-aminoacylase S1 [3]): 3%
Relative activity (%) (L-aminoacylase S2 [4]): 0%
Molecule: [Ag+] [Ag^+]
Influence of metal ions on activity (in words) (L-aminoacylase S2 [4]): prohibited; also recorded: strongly inhibited

Relative activity (%) (L-aminoacylase S1 [3]): 72%
Relative activity (%) (L-aminoacylase S2 [4]): 98%
Molecule: [Ca+2] [Ca^++]

Influence of metal ions on activity (in words) (L-aminoacylase S1 [3]): activated
Relative activity (%) (L-aminoacylase S1 [3]): 162%
Relative activity (%) (L-aminoacylase S2 [4]): 38%
Molecule: [Co+2] [Co^++]
Influence of metal ions on activity (in words) (L-aminoacylase S2 [4]): prohibited; also recorded: strongly inhibited

Influence of metal ions on activity (in words) (L-aminoacylase S1 [3]): strongly inhibited
Relative activity (%) (L-aminoacylase S1 [3]): 14%
Relative activity (%) (L-aminoacylase S2 [4]): 16%
Molecule: [Cu+2] [Cu^++]
Influence of metal ions on activity (in words) (L-aminoacylase S2 [4]): prohibited; also recorded: strongly inhibited

Relative activity (%) (L-aminoacylase S1 [1]): 0%
Relative activity (%) (L-aminoacylase S2 [2]): 0%
Molecule: CSCC[C@@H](NC(C)=O)C(=O)O [D-N--acetyl-methionine]

Relative activity (%) (L-aminoacylase S1 [1]): 0%
Relative activity (%) (L-aminoacylase S2 [2]): 0%
Molecule: CC(=O)N[C@H](Cc1c[nH]c2ccccc12)C(=O)O [D-N--acetyl-tryptophan]

Influence of metal ions on activity (in words) (L-aminoacylase S1 [3]): strongly inhibited
Relative activity (%) (L-aminoacylase S1 [3]): 17%
Relative activity (%) (L-aminoacylase S2 [4]): 18%
Molecule: [Fe+2] [Fe^++]
Influence of metal ions on activity (in words) (L-aminoacylase S2 [4]): prohibited; also recorded: strongly inhibited

Molecule: [Hg+2] [Hg^++]
Influence of metal ions on activity (in words) (L-aminoacylase S1 [3]): strongly inhibited
Relative activity (%) (L-aminoacylase S1 [3]): 2%
Influence of metal ions on activity (in words) (L-aminoacylase S2 [4]): prohibited; also recorded: strongly inhibited
Relative activity (%) (L-aminoacylase S2 [4]): 15%

Relative activity (%) (L-aminoacylase S1 [1]): 41%
Relative activity (%) (L-aminoacylase S2 [2]): 65%
Molecule: CC(=O)N[C@H](C(=O)O)c1ccc(CO)c(O)c1 [L-N--acetyl-2-(4-hydroxymethyl-3-hydroxyphenyl)glycine]

Relative activity (%) (L-aminoacylase S1 [1]): 7%
Relative activity (%) (L-aminoacylase S2 [2]): 8%
Molecule: CC(=O)N[C@@H](C)C(=O)O [L-N--acetyl-alanine]

Relative activity (%) (L-aminoacylase S1 [1]): 85%
Relative activity (%) (L-aminoacylase S2 [2]): 61%
Molecule: CC(=O)N[C@@H](CCCNC(=N)N)C(=O)O [L-N--acetyl-arginine]

Relative activity (%) (L-aminoacylase S1 [1]): 19%
Relative activity (%) (L-aminoacylase S2 [2]): 18%
Molecule: CC(=O)N[C@@H](CCC(=O)O)C(=O)O [L-N--acetyl-glutamic acid]

Relative activity (%) (L-aminoacylase S1 [1]): 41%
Relative activity (%) (L-aminoacylase S2 [2]): 36%
Molecule: CC(=O)N[C@@H](Cc1c[nH]cn1)C(=O)O [L-N--acetyl-histidine]

Relative activity (%) (L-aminoacylase S1 [1]): 76%
Relative activity (%) (L-aminoacylase S2 [2]): 71%
Molecule: CC(=O)N[C@@H](CC(C)C)C(=O)O [L-N--acetyl-leucine]

Relative activity (%) (L-aminoacylase S1 [1]): 100%
Relative activity (%) (L-aminoacylase S2 [2]): 100%
Molecule: CSCC[C@H](NC(C)=O)C(=O)O [L-N--acetyl-methionine, L-N-acetyl-methionine]

Relative activity (%) (L-aminoacylase S1 [1]): 197%
Relative activity (%) (L-aminoacylase S2 [2]): 286%
Molecule: CC(=O)N[C@@H](Cc1ccccc1)C(=O)O [L-N--acetyl-phenylalanine]

Relative activity (%) (L-aminoacylase S1 [1]): 80%
Relative activity (%) (L-aminoacylase S2 [2]): 98%
Molecule: CC(=O)N[C@@H](Cc1c[nH]c2ccccc12)C(=O)O [L-N--acetyl-tryptophan]

Relative activity (%) (L-aminoacylase S2 [2]): 137%
Molecule: CC(=O)N[C@@H](Cc1ccc(O)cc1)C(=O)O [L-N--acetyl-tyrosine]

Relative activity (%) (L-aminoacylase S1 [1]): 42%
Relative activity (%) (L-aminoacylase S2 [2]): 35%
Molecule: CC(=O)N[C@H](C(=O)O)C(C)C [L-N--acetyl-valine]

Relative activity (%) (L-aminoacylase S2 [2]): 10%
Molecule: CSCC[C@H](NC(=O)c1ccccc1)C(=O)O [L-N--benzoyl-methionine]

Relative activity (%) (L-aminoacylase S1 [1]): 4%
Relative activity (%) (L-aminoacylase S2 [2]): 5%
Molecule: CSCC[C@H](NC=O)C(=O)O [L-N--formyl-methionine]

Influence of inhibitors on activity (in words) (L-aminoacylase S2 [5]; L-aminoacylase S2): strongly inhibited
Remaining activity (%) (L-aminoacylase S2 [5]; [10]): 11%
Influence of inhibitors on activity (in words) (L-aminoacylase S2 [5]; L-aminoacylase S2, listed as cysteine): inhibited
Molecule: N[C@@H](CS)C(=O)O [L-cysteine]

Relative activity (%) (L-aminoacylase S1 [1]): 14%
Relative activity (%) (L-aminoacylase S2 [2]): 20%
Molecule: CC(=O)N[C@H](C(=O)O)[C@H](O)c1ccc(OCc2ccccc2)c(OCc2ccccc2)c1 [L-threo-N-acetyl-3-(3,4-dibenzyloxyphenyl)serine]

Relative activity (%) (L-aminoacylase S1 [3]): 107%
Relative activity (%) (L-aminoacylase S2 [4]): 95%
Molecule: [Mg+2] [Mg^++]

Relative activity (%) (L-aminoacylase S1 [3]): 61%
Relative activity (%) (L-aminoacylase S2 [4]): 31%
Molecule: [Mn+2] [Mn^++]
Influence of metal ions on activity (in words) (L-aminoacylase S2 [4]): prohibited; also recorded: strongly inhibited

Molecule: O=C(O)CI [Monoiodoacetic acid]
Influence of inhibitors on activity (in words) (L-aminoacylase S1 [6]): not inhibited
Remaining activity (%) (L-aminoacylase S1 [6]): 94%
Influence of inhibitors on activity (in words) (L-aminoacylase S2 [5]): strongly inhibited
Remaining activity (%) (L-aminoacylase S2 [5]): 3%

Action of the enzyme on the substrate (in words) (L-aminoacylase S1 [1]): does not act
Relative activity (%) (L-aminoacylase S1 [1]): 0%
Action of the enzyme on the substrate (in words) (L-aminoacylase S2 [2]): does not act
Relative activity (%) (L-aminoacylase S2 [2]): 0%
Molecule: CC(=O)N[C@H]1C(O)O[C@H](CO)[C@@H](O)[C@@H]1O (stereo partly drawn) [N--acetyl-D-glucosamine, N-acetyl-D-glucosamine]

Relative activity (%) (L-aminoacylase S1 [1]): 2%
Relative activity (%) (L-aminoacylase S2 [2]): 2%
Molecule: CC(=O)NCC(=O)O [N--acetyl-glycine]

Molecule: [Ni+2] [Ni^++]
Influence of metal ions on activity (in words) (L-aminoacylase S1 [3]): strongly inhibited
Relative activity (%) (L-aminoacylase S1 [3]): 7%
Influence of metal ions on activity (in words) (L-aminoacylase S2 [4]): prohibited; also recorded: strongly inhibited
Relative activity (%) (L-aminoacylase S2 [4]): 33%

Relative activity (%) (L-aminoacylase S1 [3]): 102%
Relative activity (%) (L-aminoacylase S2 [4]): 71%
Molecule: [Zn+2] [Zn^++]

Molecule: O=C(O)c1cc[c]([Hg][Cl])cc1 [p-chloromercuribenzoate]
Influence of inhibitors on activity (in words) (L-aminoacylase S1 [6]; L-aminoacylase S1): inhibited
Remaining activity (%) (L-aminoacylase S1 [6]; [11]): 2%
Influence of inhibitors on activity (in words) (L-aminoacylase S2 [5]; L-aminoacylase S2): strongly inhibited
Remaining activity (%) (L-aminoacylase S2 [5]; [10]): 0%

Remaining activity (%) (L-aminoacylase S1 [6]; [11]): 76%
Molecule: OCCS [β-mercaptoethanol]

B1: Acylase I: commercially available aminoacylase (hog kidney), manufactured by Miles Laboratory (protein, UniProt P37111 2-407, looked up)
Aminoacylase-1: ASKGREGEHPSVTLFRQYLRIRTVQPEPDYGAAVAFLEERARQLGLGCQKVEVVPGHVVTVLTWPGTNPTLSSILLNSHTDVVPVFKEHWSHDPFEGFKDADGYIYGRGAQDMKCVSIQYLEAVRRLKVEGHHFPRTIHMTFVPDEEVGGHQGMELFVKRPEFQALRAGFALDEGLASPTDAFTVFYSERSPWWLRVTSTGKPGHGSRFIEDTAAEKLHKVINSILAFREKEKQRLQSNQLKPGAVTSVNLTMLEGGVAYNVVPATMSACFDFRVAPDVDLKAFEEQLQSWCQAAGEGVTFEFVQKWMETQVTSTDDSDPWWAAFSGVFKDMKLALELEICPASTDARYIRAAGVPALGFSPMNHTPVLLHDHDERLHEAVFLRGVDIYTQLLSALASVPALPSES
Activity on substrate L-N-acetyl-methionine [7]: +
Activity on substrate D-N-acetyl-methionine [8]: -
Activity on substrate L-threo-N-acetyl-3-(3,4-dibenzyloxyphenyl)serine [9]: -
